Like-named read-outs stand apart in the source and are kept apart here.
Columns and labels:
[1] = test system: models of LAD occlusion followed by reperfusion; conditions: at onset of reperfusion, continued 2 hours post-reperfusion; cited from earlier work
[2] = test system: rabbit model of coronary occlusion-reperfusion; conditions: cited from earlier work; for Effect of antagonist on the effects of PolyA (infarct size): given with PolyA, KW-3902 1 mg/kg i.v.
[3] = test system: neutrophils; conditions: cited from earlier work; for Superoxide generation by neutrophils: neutrophils activated by fMLP, A23187, concanavalin A (adenosine)
[4] = test system: canine model of LAD occlusion with reperfusion; conditions: cited from earlier work
[5] = test system: closed-chest porcine model of regional ischemia and reperfusion; assay: Non-surgical ischemia-reperfusion injury in a closed-chest porcine model (75 min LAD occlusion, reperfusion); format: in vivo
Method: The use of combined adenosine and aprotinin treatment in the cath-lab setting was performed in a closed-chest porcine model of regional ischemia and reperfusion. Farm-bred pigs were initially anesthetized with ketamine, xylazine, acepromazine, diazepam and atropine, followed by maintenance anesthesia with inhaled isoflurane. Through a small femoral artery cut-down, a pigtail catheter was fluoroscopically guided into the left ventricle for injection of non-radioactive microspheres to measure regional myocardial blood flow. A similar cut-down was performed on the contralateral femoral artery, through which was placed a sheath to introduce a 7-Fr guide catheter and angioplasty-type balloon catheters. The 7-Fr guide catheter was inserted into this sheath and fluoroscopically guided to the left main coronary artery. The left main coronary ostium was engaged by the catheter and a guide wire. An angioplasty-type balloon catheter was guided into the LAD just distal to the first diagonal branch. […]
After all instrumentation was complete, the animal was allowed to stabilize for 10 minutes. Baseline hemodynamics (arterial pressure, heart rate) and myocardial blood flow (microspheres) were measured. The microspheres were injected via the pigtail catheter to quantify myocardial blood flow during steady state. […]

[6] = test system: ischemically injured hearts (30 minutes of normothermic global ischemia); conditions: blood cardioplegia supplemented with 400 μM adenosine vs unsupplemented; cited from earlier work
[7] = test system: platelets; conditions: exogenous adenosine; cited from earlier work
[8] = test system: reperfusion injury in the canine preparation; conditions: 24 hours after start of reflow, cited from earlier work
[9] = test system: canine model of severe coronary occlusion; conditions: 10 μM in blood perfusate, first 30 min of reperfusion; after two hours of reperfusion; vs vehicle; cited from earlier work
[10] = test system: permanent (24 hours) coronary artery occlusion; conditions: 100,000 KIU i.v. 30 minutes after occlusion; cited from earlier work
[11] = test system: rat model of coronary artery occlusion and 24 hours of reperfusion; conditions: cited from earlier work
[12] = test system: isolated rat hearts; conditions: 105 KIU/L aprotinin, pretreatment and adjunct to crystalloid cardioplegia; cited from earlier work
[13] = test system: rat myocardium slices; conditions: 200 KIU aprotinin, cited from earlier work
[14] = test system: isolated canine hearts; conditions: cardioplegia containing 150 KIU aprotinin, cited from earlier work
[15] = test system: canine model of 15 minutes coronary artery occlusion; conditions: 30,000 KIU/kg bolus plus 7,000 KIU/kg/hr i.v. prior to occlusion; vs saline control; cited from earlier work
[16] = infusion for first hour of reperfusion
[17] = 5,000 KIU/kg before onset of reperfusion, vs vehicle
[18] = 20,000 KIU/kg before onset of reperfusion

## 1S-[1a,2b,3b,4a(S*)]]-4-[7-[[2-(3-chloro-2-thienyl)-1-methylpropyl]amino]-3H-imidazo[4,5-b]pyridyl-3-yl]cyclopentane carboxamide [AMP-579]
[1]
  Infarct size: reduced

## Cn1c(=O)c2[nH]c(-c3ccc(S(=O)(=O)O)cc3)nc2n(C)c1=O [8-SPT, 8-p-sulfophenyl theophylline]
[2]
  Effect of antagonist on the effects of PolyA (infarct size): reversed

## CCNC(=O)[C@H]1O[C@@H](n2cnc3c(N)nc(NCCc4ccc(CCC(=O)O)cc4)nc32)[C@H](O)[C@@H]1O [CGS-21680, 2-[p-(2-carbonyl-ethyl)-phenylethylamino]-5′-N-ethylcarboxamidoadenosine]
[3]
  Superoxide generation by neutrophils: attenuated
[4]; 60 min occlusion, intracoronary infusion for first hour of reperfusion, saline vehicle 29.8±2.3%
  Infarct size: 15.4±2.9 % of the area at risk
[4]; [16]
  Neutrophil accumulation in the area at risk: significantly reduced
  Wall motion: no improvement

## CCCn1c(=O)c2[nH]c(C34CC5CC(CC3C5)C4)nc2n(CCC)c1=O [KW-3902, 8-(3-noradamantyl)-1,3-dipropylxanthine]
[2]
  Effect of antagonist on the effects of PolyA (infarct size): not altered

## Nc1ncnc2c1ncn2[C@@H]1O[C@H](CO)[C@@H](O)[C@H]1O [adenosine]
[5]; intracoronary adenosine approx 10-20 μM LAD blood concentration for about 30 min at reperfusion, group of three animals, delivery questionable (no vasodilatory effect at 15 min)
  Infarct size: 40.4±3.6%
[5]; intracoronary adenosine approx 10-20 μM for about 30 min at reperfusion, the one experiment with delivery confirmed by vasodilation at 15 min reperfusion
  Infarct size: 10%
[3]
  Superoxide generation by neutrophils: inhibited
[6]
  Post-ischemic systolic dysfunction: reversed
[7]
  Concentrations inhibiting platelet aggregation: 2 to 40 µM
[8]; intracoronary 3.75 mg/min at onset of reperfusion
  Regional contractile function: improved
[8]; intracoronary into LAD 3.75 mg/min at onset of reperfusion
  Reduction of infarct size: 75%
[9]
  Infarct size as percent of AAR (An/ARR): significantly lower
  Infarct size as percent of LV (An/LV): significantly lower

## aprotinin
[10]
  Histologically apparent infarct size: decreased
[11]; [17]
  Infarct size estimated from myocardial creatine kinase loss: significantly reduced
  Neutrophil accumulation (myocardial myeloperoxidase): significantly reduced
[11]; 5,000 or 20,000 KIU/kg before onset of reperfusion
  Appearance of apoptosis in the area at risk myocardium: attenuated
[11]; [18]
  Infarct size estimated from myocardial creatine kinase loss: further significantly reduced
  Neutrophil accumulation (myocardial myeloperoxidase): significantly reduced
[12]
  Myocardial protection: significant protection
[13]; 4° C., up to 6 hours of storage
  ATP content and protein synthesis of myocardium slices: attenuated the decline
[13]
  TNFα generation and uptake by myocardial tissue slices: suppressed
[14]
  Lysosomal enzyme N-acetyl-β-D-glucosaminidase in coronary sinus blood during reperfusion: significantly lower
  Recovery of systolic function (end-systolic pressure-volume relationship): significantly less recovery
[14]; vs control group
  Post-ischemic non-specific creatine kinase (CK) activity or CK-MB isoenzyme activity: no difference
  Recovery of post-ischemic ATP after reperfusion: significantly greater
[15]
  Recovery of systolic function in the area at risk (systolic shortening): significantly greater recovery

## polyadenylic acid
[3]
  PMNs superoxide generation and adherence to coronary endothelium: significantly inhibited
[2]; nearly sub-vasodilator dose at reperfusion
  Reduction of infarct size: 50%
